Measurements reported in US20260226073A1 (AURIGENE ONCOLOGY LIMITED, priority 2023, published 2026).

Columns and labels:
[1] = target: T1, human recombinant CBL-b (human Biotin CBL-b recombinant protein a.a. 39-426) (Homo sapiens, UniProt Q13191); assay: Biochemical assay for CBL-b inhibition (ligand displacement TR-FRET); assay type: binding; conditions: 50 nM CBL-b, 0.3 μM Bodipy FL-Probe, read-out: IC50 (CBL-b inhibition, group)
T1 construct: human Biotin CBL-b recombinant protein a.a; 39-426; Biotin (biotinylated); made in house
T1 sequence (Q13191 39-426): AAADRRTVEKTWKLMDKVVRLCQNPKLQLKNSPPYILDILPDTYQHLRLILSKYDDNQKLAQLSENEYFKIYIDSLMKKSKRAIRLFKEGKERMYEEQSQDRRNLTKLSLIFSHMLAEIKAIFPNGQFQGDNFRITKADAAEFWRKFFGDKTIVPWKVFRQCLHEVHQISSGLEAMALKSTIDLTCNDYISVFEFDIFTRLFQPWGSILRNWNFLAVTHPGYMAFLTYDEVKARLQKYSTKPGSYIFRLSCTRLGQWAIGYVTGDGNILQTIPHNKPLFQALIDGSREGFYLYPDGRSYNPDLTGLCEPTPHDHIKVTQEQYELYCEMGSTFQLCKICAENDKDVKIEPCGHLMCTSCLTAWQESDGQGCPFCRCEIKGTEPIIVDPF
Method in brief: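 Biotinylated CBL-b (a.a. 39-426, 50 nM final) pre-incubated with compound 60 min at RT in HEPES/NaCl/Triton/BSA/TCEP buffer, then Bodipy FL probe (0.3 μM final) 60 min, then terbium-streptavidin 60 min. TR-FRET read at 665/615 nm; IC50 and % max inhibition from sigmoidal fits.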

[2] = tested on: NFAT signaling pathway in Jurkat NFAT reporter cells; assay: Jurkat NFAT reporter assay; assay type: cell-based; conditions: Homo sapiens, 30 min with compound, then soluble anti-human CD3/CD28 antibody for 6 hours, luciferase readout, read-out: EC50 (Group)
Method in brief: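 Jurkat cells bearing an NFAT-RE-driven luciferase reporter (1×10^5 per well) preincubated with Cbl-b inhibitor for 30 min, then stimulated 6 h with soluble anti-CD3/CD28. Luminescence read with Bio-Glo; values are fold change over anti-CD3/CD28-stimulated cells without inhibitor.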

| IC50 [1] [nM] | EC50 [2] [nM] | Structure (SMILES) |
| --- | --- | --- |
| 80 to 300 | 1000 to 10000 | C[C@@H]1C[C@H](C)CN(Cc2cc(N3Cc4ccc(-c5ccccc5-c5nncn5C)cc4C3=O)nc(C(F)(F)F)c2)C1 [Compound 117, 2-(4-(((3S,5R)-3,5-Dimethylpiperidin-1-yl)methyl)-6-(trifluoromethyl)pyridin-2-yl)-6-(2-(4-methyl-4H-1,2,4-triazol-3-yl)phenyl)isoindolin-1-one] |
| < 80 | 300 to 1000 | Cn1cnnc1-c1cc(Cl)ccc1-c1ccc2c(c1)C(=O)N(c1cc(Cl)cc(CNCC3CC3)c1)C2 [Compound 119, 6-(4-Chloro-2-(4-methyl-4H-1,2,4-triazol-3-yl)phenyl)-2-(3-chloro-5-(((cyclo-propylmethyl)amino)methyl)phenyl)isoindolin-1-one] |
| < 80 | < 300 | CC(NCC1CC(F)(F)C1)c1cc(Cl)nc(N2Cc3ccc(-c4ccc(Cl)cc4-c4nncn4C)cc3C2=O)c1 (stereo not shown) [Compound 121, 6-(4-Chloro-2-(4-methyl-4H-1,2,4-triazol-3-yl)phenyl)-2-(6-chloro-4-(1-(((3,3-difluorocyclobutyl)methyl)amino)ethyl)pyridin-2-yl)isoindolin-1-one] |
| < 80 | < 300 | Cc1cc(CNC(C)C2CC2)cc(N2Cc3ccc(-c4ccc(Cl)cc4-c4nncn4C)cc3C2=O)n1 (stereo not shown) [Compound 122, 6-(4-Chloro-2-(4-methyl-4H-1,2,4-triazol-3-yl)phenyl)-2-(4-(((1-cyclopropyl-ethyl)amino)methyl)-6-methylpyridin-2-yl)isoindolin-1-one] |
| < 80 | < 300 | Cc1cc(CNCC2CC2)cc(N2Cc3ccc(-c4ccc(F)cc4-c4nncn4C)cc3C2=O)n1 [Compound 127, 2-(4-(((Cyclopropylmethyl)amino)methyl)-6-methylpyridin-2-yl)-6-(4-fluoro-2-(4-methyl-4H-1,2,4-triazol-3-yl)phenyl)isoindolin-1-one] |
| < 80 | < 300 | CC(NCc1cc(Cl)nc(N2Cc3ccc(C4(Cc5nncn5C)COC4)cc3C2=O)c1)C1CC1 (stereo not shown) [Compound 131, 2-(6-Chloro-4-(((1-cyclopropylethyl)amino)methyl)pyridin-2-yl)-6-(3-((4-methyl-4H-1,2,4-triazol-3-yl)methyl)oxetan-3-yl)isoindolin-1-one] |
| < 80 | < 300 | Cn1cnnc1-c1cc(Cl)ccc1-c1ccc2c(c1)C(=O)N(c1cc(CNCC3CC3)cc(C(F)(F)F)n1)C2 [Compound 132, 6-(4-Chloro-2-(4-methyl-4H-1,2,4-triazol-3-yl)phenyl)-2-(4-(((cyclopropylmethyl)amino)methyl)-6-(trifluoromethyl)pyridin-2-yl)isoindolin-1-one] |
| < 80 | 1000 to 10000 | Cc1nc(CNCC2CC2)cc(N2Cc3ccc(-c4ccc(F)cc4-c4nncn4C)cc3C2=O)n1 [Compound 133, 2-(6-(((Cyclopropylmethyl)amino)methyl)-2-methylpyrimidin-4-yl)-6-(4-fluoro-2-(4-methyl-4H-1,2,4-triazol-3-yl)phenyl)isoindolin-1-one] |
| < 80 | < 300 | Cc1cc(CNCC2CCC2)cc(N2Cc3ccc(-c4ccc(F)cc4-c4nncn4C)cc3C2=O)n1 [Compound 134, 2-(4-(((Cyclobutylmethyl)amino)methyl)-6-methylpyridin-2-yl)-6-(4-fluoro-2-(4-methyl-4H-1,2,4-triazol-3-yl)phenyl)isoindolin-1-one] |
| < 80 | < 300 | C[C@@H]1C[C@H](C)CN(Cc2cc(N3Cc4ccc(C5(Cc6nncn6C)CC(C#N)C5)cc4C3=O)nc(C(F)(F)F)c2)C1 (stereo partly shown) [Compound 143] |
| < 80 | < 300 | Cn1cnnc1CC1(c2ccc3c(c2)C(=O)N(c2cc(CNCC4CCC4)cc(Cl)n2)C3)COC1 [Compound 144, 2-(6-Chloro-4-(((cyclobutylmethyl)amino)methyl)pyridin-2-yl)-6-(3-((4-methyl-4H-1,2,4-triazol-3-yl)methyl)oxetan-3-yl)isoindolin-1-one] |
